These results are taken from patent publication US9394544B2, “Ameliorating oxidative stress in neurodegenerative disease via Nox1 targeting” (University of Central Florida Research Foundation, Inc., priority 2013, dated 2016).

This test has as its system SN dopaminergic neurons. The experiment in a line: Stereological count of TH-positive dopaminergic neurons in the SN, PQ rat model. It is filed as in vivo. Conditions: vector+PQ group, or Nox1 shRNA+PQ group. As to the method:
The experiments were performed on rats, in accordance with the National Institutes for Health Guide for the Care and Use of Laboratory Animals. All procedures were approved by the local Animal Care and Use Committee. Male Wistar rats (8-10 weeks; Charles River) were maintained in a temperature/humidity-controlled environment under a 12 h light/dark cycle with ad libitum access to food and water. As depicted in FIG. 13A, each animal received four intraperitoneal injections, separated by 1 d, of either vehicle (saline) or PQ (10 mg/kg body weight; b.w.), according to a previously published dose (Manning-Bog et al., 2002; Harraz et al., 2008; Cristovao et al., 2009). All animals were weighed at day 1 and 12. In the studies using the paradigm depicted in FIG. 13A, 4 weeks before starting PQ intraperitoneal injection, animals were stereotaxically injected with various viral constructs at the right SN using the following coordinates: mediolateral, +2.0; anteroposterior, −5.3; dorsoventral, −6.8. […]
Following perfusion with saline and 4% PFA in PBS, brains were removed, and forebrain and midbrain blocks were immersion fixed in 4% PFA and cryoprotected in sucrose. […] The numbers of TH-immunoreactive cells in the SN were counted using an optical fractionator. […]

On to `C[n+]1ccc(-c2cc[n+](C)cc2)cc1` [PQ, paraquat], for which the “dopaminergic neuronal loss (stereological count of TH-positive neurons)” value turned out to be 37%.
